Entries after “also recorded” stand apart in the source; their conditions may differ.
Legend:
[1] = Metabolic stability in liver microsomes; type: in vitro ADME, human, dog, rat, monkey, and mouse; details: each of the species tested
Experimental: Human, mouse, and dog liver microsomes were purchased from Xenotech, and Sprague-Dawley rat liver microsomes were prepared by Absorption Systems. The reaction mixture comprising 0.5 mg/mL of liver microsomes, 100 mM of potassium phosphate, pH 7.4, 5 mM of magnesium chloride, and 1 uM of test compound was prepared. The test compound was added into the reaction mixture at a final concentration of 1 uM. An aliquot of the reaction mixture (without cofactor) was incubated in shaking water bath at 37 deg. C. for 3 minutes. The control compound, testosterone, was run simultaneously with the test compound in a separate reaction. The reaction was initiated by the addition of cofactor (NADPH), and the mixture was then incubated in a shaking water bath at 37 deg. C. Aliquots (100 μL) were withdrawn at 0, 10, 20, 30, and 60 minutes for the test compound and 0, 10, 30, and 60 minutes for testosterone. […] Test compound samples were analyzed using the Orbitrap high resolution mass spectrometer to quantify the disappearance of parent test compound and detect the appearance of metabolites. […] Half-lives were calculated using GraphPad software, fitting to a single-phase exponential decay equation.
When calculated half-life was longer than the duration of the experiment, the half-life was expressed as >the longest incubation time. The calculated half-life is also listed in parentheses. […]

[2] = system: Rb phosphorylation at Ser780 and Ser807/811 in tHS68 and WM2664; assay: Rb phosphorylation western blot, CDK4/6-dependent cell lines; type: cell-based; details: 300 nM; 4, 8, 16, 24 hours
Experimental: MAPK levels are shown as a control for protein levels. Following treatment, cells were harvested and analyzed for Rb-phosphorylation by western blot analysis.
The CDK4/6-cyclin D complex is essential for progression from G1 to the S-phase of the DNA cell cycle. This complex phosphorylates the retinoblastoma tumor suppressor protein (Rb). […] Samples were lysed and protein was assayed by western blot analysis. Rb phosphorylation was measured at two sites targeted by the CDK4/6-cyclin D complex, Ser780 and Ser807/811 using species specific antibodies.

[3] = Mouse pharmacokinetics (oral gavage / intravenous); type: in vivo, mice; details: plasma, 30 mg/kg, read-out: F (oral bioavailability)
Experimental: Blood samples were taken at 0, 0.25, 0.5, 1.0, 2.0, 4.0, and 8.0 hours post dosing and the plasma concentrations were determined by HPLC.

[4] = system: MCF7 (breast adenocarcinoma, Rb-positive); assay: Cellular proliferation assay (CellTiter-Glo), MCF7; type: cell-based
Experimental: The MCF7 cells were seeded in Costar (Tewksbury, Mass.) 3903 96 well tissue culture treated white walled/clear bottom plates. A nine point dose response dilution series from 10 uM to 1 nM was performed and cell viability was determined after six days of compound treatment as indicated using the CellTiter-Glo® luminescent cell viability assay (CTG; Promega, Madison, Wis., United States of America) following the manufacturer's recommendations. Plates were read on a BioTek (Winooski, Vt.) Syngergy2 multi-mode plate reader. The Relative Light Units (RLU) were plotted as a result of variable molar concentration and data was analyzed using Graphpad (LaJolla, Calif.) Prism 5 statistical software to determine the EC50 for each compound.
(§1) Cellular proliferation assays were conducted using the following cancer cell lines: MCF7 (breast adenocarcinoma—Rb-positive), ZR-75-1 (breast ductal carcinoma—Rb-positive), H69 (human small cell lung cancer—Rb-negative) cells, or A2058 (human metastatic melanoma cells—Rb-negative). These cells were seeded in Costar (Tewksbury, Mass.) […] 96 well tissue culture treated white walled/clear bottom plates. Cells were treated with the compounds of Table 1 as nine point dose response dilution series from 10 uM to 1 nM. Cells were exposed to compounds and then cell viability was determined after either four (H69) or six (MCF7, ZR75-1, A2058) days as indicated using the CellTiter-Glo® luminescent cell viability assay (CTG; Promega, Madison, Wis., United States of America) following the manufacturer's recommendations. Plates were read on BioTek (Winooski, Vt.) Syngergy2 multi-mode plate reader. The Relative Light Units (RLU) were plotted as a result of variable molar concentration and data was analyzed using Graphpad (LaJolla, Calif.) Prism 5 statistical software to determine the EC50 for each compound.

[5] = system: ZR-75-1 (breast ductal carcinoma, Rb-positive); assay: Cellular proliferation assay (CellTiter-Glo), ZR-75-1; type: cell-based
Experimental: as §1

half-life in liver microsomes compared with PD0332991 [1]: shorter in each species
bioavailability [3]: 80%
SMILES: CN1CCN(c2ccc(Nc3ncc4cc5n(c4n3)C3(CCCCC3)CNC5=O)nc2)CC1 [T]
Rb phosphorylation in CDK4/6-dependent cell lines (tHS68, WM2664) [2]: blocks Rb phosphorylation in Rb-dependent cell lines by 16 hours post exposure; also recorded: reduced Rb-phosphorylation starting 16 hours after treatment
activity against MCF-7 cells compared with PD0332991 (FIG. 21) [4]: more potent activity against MCF-7 cells than PD0332991
inhibition of cellular proliferation of MCF-7 cells (FIGS. 21-24) [4]: significant inhibition of cellular proliferation
activity against ZR75-1 cells compared with PD0332991 (FIG. 25) [5]: more potent activity against ZR75-1 cells than PD0332991
inhibition of cellular proliferation of ZR75-1 cells (FIGS. 25-28) [5]: significant inhibition of cellular proliferation
